Experimental findings from patent publication US20250161312A1, “A METHOD FOR THE TREATMENT OF CHEMOTHERAPEUTIC DRUG-INDUCED NEPHROTOXICITY” (INSTITUT NATIONAL DE LA SANTÉ ET DE LA RECHERCHE MÉDICALE, priority 2022, published 2025) are described below.

For series [1], the system named is LLC1 tumors in C57BL6/J mice. The experiment in a line: LLC1 in vivo tumor model (syngeneic, sub-chronic cisplatin). The procedure:
(§1) FIG. 1. Schematic representation of the different animal procedures. (A) Acute cisplatin-induced kidney injury. […] (B) Sub-chronic cisplatin-induced kidney injury. […] (C) KW-6002 administration schedule in the acute model. […] (D) KW-6002 administration schedule in the sub-chronic model.
LLC1 cells (Lewis Lung Cancer cells, ATCC® CRL-1642™) were cultured in DMEM with 10% fetal calf serum and penicillin-streptomycin. LLC1 cells ([…]) in PBS: matrigel (1:1, for a total volume of 100 μL) were subcutaneously injected in the right flank of animals. Tumors were measured twice a week with calipers and their volumes were estimated using the following equation: ½ (length×width2).
(§2) Prior sacrifice by cervical dislocation, retro-orbital blood samples were collected in heparinized tubes and centrifuged for 10 min at 2000 rpm at room temperature. Renal function was assessed by Blood urea nitrogen (BUN) measurement using a AU480 Chemistry Analyzer (Beckman Coulter). At the time of sacrifice, kidneys or LLC1 tumors were harvested and stored in either “RNA later” solution (Thermo Fisher), 4% neutral buffered formalin or snap-frozen in liquid nitrogen.
Paraffin-embedded sections (3 μm thick) were deparaffinized with xylene and rehydrated in successive ethanol dilutions. Then, antigen retrieval was done by incubation in sub-boiling 10 mM sodium citrate buffer. Tissues were permeabilized in a 0.4% Triton X-100 solution, and nonspecific binding was blocked with a 5% BSA solution in TBS for 2 hours. Sections were then incubated overnight with an anti-γH2AX antibodies (1:50; no. 9718, Cell Signaling Technology). After washing, the secondary antibody (A10042) was incubated for 45 minutes at room temperature. Again, after washing, the nuclei were stained with a 300 nM DAPI solution (D1306, Life Technologies, Thermo Fisher Scientific). The slides were analyzed using a Zeiss LSM 880 confocal microscope. Quantification was performed using ImageJ. For immunofluorescence studies in free-floating sections, mice were deeply anesthetized with pentobarbital sodium (50 mg/kg, i.p.) and then transcardially perfused with cold NaCl (0.9%) and 4% paraformaldehyde in PBS (pH 7.4). Kidneys were removed, post-fixed for 24 hours in 4% paraformaldehyde, and cryoprotected in 30% sucrose before being frozen at −40° C. in isopentane (methyl-butane) and stored at −80° C. Longitudinal kidney sections (40 μm) were obtained using a Leica cryostat. Free-floating sections were stored in PBSazide (0.2%) at 4° C. Longitudinal kidney sections were incubated with a donkey serum (D9663, MilliporeSigma) at 10% in PBS Triton X-100 (0.2%) for 1 hour and then incubated with anti-A2AR primary antibody (1:50; GP-Af1000, Frontiers Institute) for 72 hours at 4° C. in Signal Boost (8114, Cell Signaling Technology). Alexa Fluor 568-conjugated secondary antibodies (1:500; Life Technologies, Thermo Fisher Scientific) were incubated overnight at room temperature. Lectin staining was performed by incubating sections for 1 hour at room temperature with Lotus tetragonolobus FITC conjugate (Vector Laboratories, FL-1321-2) diluted to 2 μg/mL in blocking medium. Sections were counterstained with DAPI (1:5,000; no. 62247, Thermo Fisher Scientific) and mounted on superfrost slides and left to dry. Then, they were covered with Vectashield Vibrance Antifade Mounting Medium (H-1700, Vector Laboratories). Images were acquired using a Zeiss LSM 710 confocal laser-scanning microscope at ×20 magnification. 3D reconstruction of confocal image stacks was performed using Imaris software (Bitplane).
(§3) Reverse transcription was performed on 1 μg of RNA using high-capacity cDNA reverse transcription kit (Thermo Fisher), according the manufacturer's recommendation. Real time PCR was performed on a StepOne device using Taqman Gene Expression Master Mix (Thermo Fisher), following manufacturer's recommendations. […]

The test system of another series is H1975 cells. The experiment in a line: Cell efflux (flow cytometry) in H1975 cells. The class given is cell-based. The conditions noted are these: cancer cells in response to cisplatin, data not shown. The procedure:
The basic cell efflux function was assessed using an EFLUXX-ID Green Multidrug Resistance Assay Kit (ENZO Life Sciences). Briefly, 2.5×10^5 cells/condition were collected, washed with PBS, and incubated with the EFLUXX-ID Green Detection Reagent for 30 minutes at 37° C., and then efflux was measured immediately by flow cytometry (CytoFLEX LX, Beckman Coulter). All experiments were performed in triplicate, with the measurement of 10,000 individual cells. Data were analyzed using Kaluza Analysis Software (Beckman Coulter).
(In general: Flow cytometry measures light scatter and fluorescence of single cells or particles in a stream.)

The subject of another series is RPTEC/hTERT cells. The experiment in a line: Cell concentrations of platinum. The class given is cell-based, human. The following applies: cisplatin 50 μM, KW-6002 25 μM, 48 hours. Here is the method: Tissues (35 mg) and cell pellets were first mineralized with hydrochloric acid (30% Suprapur, Merck) or nitric acid (69.5%, Carlo Erba), respectively. Analysis of tissue samples was performed by Graphite Furnace Atomic Absorption Spectrometry (GF-AAS) using an Aanalyst 800 (Perkin Elmer)., while cell samples analysis was performed by Inductively Coupled Plasma Mass Spectrometry (ICP-MS) using an ICAP-Qc (Thermo Scientific). Platinum concentration was finally normalized to the accurately measured kidney mass, or to the number of cells previously assessed.

Another series has as its system C57BL6/J mice. The experiment in a line: Sub-chronic cisplatin-induced kidney injury model. The class given is in vivo. The procedure: as §1
Animal experiments were adapted from 63-64. Animal procedures were performed in 8 to 10 weeks old male C57B16/J mice (Janvier Labs). Mice were fed a laboratory standard diet with water and food ad libitum and were kept under constant environmental conditions with a 12-hour light-dark cycle. Istradefylline (KW-6002; Tocris) was dissolved in a carrier solution consisting in 15% DMSO, 15% cremophor (Sigma), 70% saline solution (vehicle). Cisplatin (Accord Healthcare) was dissolved in saline solution. […] Three days after this single injection, animals were sacrificed by cervical dislocation (FIG. 1A).
as §2
Formalin-fixed and paraffin-embedded sections (3 μm thick) were stained with Hematoxylin and Eosin (Sigma Aldrich) or Periodic Acid-Schiff (Sigma-Aldrich). Slices were scored by a nephropathologist in a blinded manner. A kidney injury score grading scale from 0 to 5 was used to assess the severity of the injury as follow: 0=no lesions, 1=minimal injury characterized by occurrence of necrosis and debris; 2=mild injury with single cell necrosis, pyknotic cells, and apoptosis; 3=moderate injury characterized by tubular distension, vacuolation, and some cellular debris, 4=severe injury with occasional hyaline casts observed, patchy epithelial necrosis in all segments, loss of epithelial lining; and 5=very severe injury characterized by extensive tubular epithelial necrosis in all segments, loss of epithelial layer from many tubules widespread intraluminal cellular debris, and frequent hyaline casts particularly prominent in the medullary region (67).
Total RNA from kidney samples was extracted with phenol/chloroform and subsequently precipitated in isopropanol as described previously (71). Total RNA from cultured renal cells was extracted using RNeasy Mini kit (Qiagen) following manufacturer's recommendations.
as §3

As for `CCn1c(=O)c2c(nc(/C=C/c3ccc(OC)c(OC)c3)n2C)n(CC)c1=O` [KW-6002, 8-[(E)-2-(3,4-dimethoxyphenyl)vinyl]-1,3-diethyl-7-methyl-3,7-dihydro-1H-purine-2,6-dione], the “cisplatin accumulation (platinum levels) in the kidney” value in series [1] (KW-6002-treated mice, FIG. 4A) is recorded as “lowered”. For the same compound, the “cisplatin accumulation (platinum levels) in the tumors” value in series [1] (KW-6002-treated mice, FIG. 4B) was “remained unchanged”. In addition, the “anti-tumoral response to cisplatin (tumor size)” value in series [1] (co-treatment with cisplatin, FIG. 3) is reported as “did not compromise the anti-tumoral response to cisplatin”. The “cisplatin-induced DNA damage, H2AX+ cells in tumors” value in series [1] (in vivo LLC1 syngeneic model) was “increased number of H2AX+ cells”. The “expression of some efflux transporters in kidneys” value in series [1] (qPCR, FIG. 4A) is recorded as “significantly increased”. Further, in series [1] (qPCR, FIG. 4B), the “transporter expression in tumors” value is “no expression changes”. Also, the “ability to protect from cisplatin-induced kidney injury” value in series [1] (tumor-bearing mice) is listed as “preserved”. Besides, the efflux entry with H1975 cells was “significantly reduced”. Also, the “accumulation of cisplatin (platinum) in cells” value in the series with RPTEC/hTERT cells was “limits the accumulation of cisplatin”. In addition, the “histological lesions (histological score of renal injury)” value in the series on C57BL6/J mice (SC model, FIG. 2H) was “less severe histological lesions”. The “mRNA levels of Tnfα” value in the series with C57BL6/J mice (SC model, FIG. 2K, figure not given) is recorded as “lower mRNA levels of Tnfα”. Besides, in the series with C57BL6/J mice (SC model, kidney), the “mRNA levels of I16, change vs. cisplatin” value was −77.5±5.6%. For the same compound, in the series on C57BL6/J mice (SC model, kidney mRNA), the “reduction of KIM-1 expression vs. cisplatin” value is reported as −79.5±3.8% and the “reduction of NGAL expression vs. cisplatin” value is on record as −82.9±1.4%. The “reduction of BUN vs. cisplatin” value in the series with C57BL6/J mice (SC model: cisplatin 3 mg/kg i.p. six days, KW-6002 3 mg/kg i.p. daily day-5 to day 7) is recorded as −70.2±5.1%. Also, in the series on C57BL6/J mice (in vivo, subchronic model, FIG. 6D), the “cisplatin-induced increase in expression of Nrf2” value is listed as “normalized”. In addition, the “cisplatin-induced increase in expression of HO1” value in the series with C57BL6/J mice (in vivo, subchronic model, FIG. 6E) is “normalized”. Also, the “effect on platinum accumulation in kidneys” value in the series with C57BL6/J mice (independent experiment, animals of FIGS. 2G-2L) is “replicated”.
